Source: PubChem BioAssay (NCI)
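These data come from cells grown in 96-well plates and exposed to compound for 48 hours at five concentrations. GI50 is the concentration that inhibits growth by half. TGI: total growth inhibition.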

How the values were obtained:
Test in all cases: inhibition of tumour cell growth, NCI panel, 48 h
[1] = test system: HOP-92 NSCLC
[2] = test system: CCRF-CEM leukemia
[3] = test system: SF-295 CNS
[4] = test system: NCI-H522 lung
[5] = test system: HCC-2998 colon
[6] = test system: HS 578T breast
[7] = test system: CAKI-1 renal
[8] = test system: OVCAR-5 ovarian
[9] = test system: SK-MEL-2 melanoma
[10] = test system: SN12C renal

Structure (SMILES): CC(NCCC(=O)N(CCC(=O)N(CCC(=O)N(CCC(=O)N(CCC(=O)N(CCC(=O)N(CCC(=O)N(CCC(=O)N(CCC(=O)N(CCC(=O)O)[C@H](C)c1ccccc1)[C@H](C)c1ccccc1)[C@H](C)c1ccccc1)[C@H](C)c1ccccc1)[C@H](C)c1ccccc1)[C@H](C)c1ccccc1)[C@H](C)c1ccccc1)[C@H](C)c1ccccc1)[C@H](C)c1ccccc1)c1ccccc1 (some centres undefined)
- GI50 [1]: 0.753 µM
- TGI [1]: 2.34 µM
- GI50 [2]: 1.89 µM
- TGI [2]: > 19.5 µM
- GI50 [3]: 1.92 µM
- TGI [3]: 5.55 µM
- GI50 [4]: 2.12 µM
- TGI [4]: 24.5 µM
- GI50 [5]: 1.38 µM
- TGI [5]: 3.11 µM
- GI50 [6]: 2.54 µM
- TGI [6]: > 57.3 µM
- GI50 [7]: 3.49 µM
- TGI [7]: > 45.1 µM
- GI50 [8]: > 18.8 µM
- TGI [8]: > 75 µM
- GI50 [9]: 1.9 µM
- TGI [9]: 7.97 µM
- GI50 [10]: 3.66 µM
- TGI [10]: > 75 µM

Structure (SMILES): C=C1C(=O)O[C@H]2[C@H](OC(C)=O)[C@@H](C)CCC/C(C)=C/CC[C@@]3(C)O[C@@H]3C[C@@H]12
- TGI [1]: 5.54 µM
- TGI [2]: 3.76 µM
- TGI [3]: 28.5 µM
- TGI [4]: 3.9 µM
- TGI [5]: 11.6 µM
- TGI [6]: 13.2 µM
- TGI [7]: 5.37 µM
- TGI [8]: 27.6 µM
- TGI [9]: 19.5 µM
- TGI [10]: 4.05 µM

Structure (SMILES): O=P(CCCCP(=O)(c1ccccc1)c1ccccc1)(c1ccccc1)c1ccccc1.[Cl][Sn]([Cl])([c]1ccccc1)[c]1ccccc1
- GI50 [1]: 1.56 µM
- TGI [1]: 3.18 µM
- GI50 [2]: 0.224 µM
- TGI [2]: 2.39 µM
- GI50 [3]: 6.36 µM
- TGI [3]: 18.3 µM
- GI50 [4]: 0.0514 µM
- TGI [4]: 0.208 µM
- GI50 [5]: 2.76 µM
- TGI [5]: 10.1 µM
- GI50 [6]: 4.1 µM
- TGI [6]: > 50.6 µM
- GI50 [7]: 0.661 µM
- TGI [7]: 3.32 µM
- GI50 [8]: 1.93 µM
- TGI [8]: 4 µM
- GI50 [9]: 1.74 µM
- TGI [9]: 3.39 µM
- GI50 [10]: 2.1 µM
- TGI [10]: 5.76 µM

Structure (SMILES): CN(C)CC1C(=O)O[C@H]2[C@H]1CC/C(COC(=O)c1cc3ccccc3[nH]1)=C\CC[C@@]1(C)O[C@@H]21 (some centres undefined)
- GI50 [1]: 1.53 µM
- TGI [1]: 3.62 µM
- GI50 [2]: 0.432 µM
- TGI [2]: 15.9 µM
- GI50 [3]: 4.87 µM
- TGI [3]: 18.5 µM
- GI50 [4]: 1.32 µM
- TGI [4]: 3.05 µM
- GI50 [5]: 1.78 µM
- TGI [5]: 3.58 µM
- GI50 [6]: 2.93 µM
- TGI [6]: 13.6 µM
- GI50 [7]: 1.31 µM
- TGI [7]: 2.85 µM
- GI50 [8]: 2.37 µM
- TGI [8]: 6.15 µM
- GI50 [9]: 1.98 µM
- TGI [9]: 5.51 µM
- GI50 [10]: 2.2 µM
- TGI [10]: 6.08 µM

Structure (SMILES): COc1ccc(S(=O)(=O)Nc2cc(/C=C\c3cc(OC)c(OC)c(OC)c3)ccc2OC)cc1
- GI50 [1]: 0.0974 µM
- TGI [1]: 12 µM
- GI50 [2]: 0.176 µM
- TGI [2]: > 100 µM
- GI50 [3]: 0.0393 µM
- TGI [3]: 70.9 µM
- GI50 [4]: 0.0204 µM
- TGI [4]: 0.0564 µM
- GI50 [5]: 0.442 µM
- TGI [5]: > 100 µM
- GI50 [6]: 0.226 µM
- TGI [6]: > 100 µM
- GI50 [7]: 0.0515 µM
- TGI [7]: 20.6 µM
- GI50 [8]: 0.323 µM
- TGI [8]: > 100 µM
- GI50 [9]: 0.0803 µM
- TGI [9]: 93 µM
- GI50 [10]: 0.682 µM
- TGI [10]: > 100 µM

Structure (SMILES): COc1ccc(/C=C(\C#N)n2nnc3ccccc32)cc1
- GI50 [1]: 0.272 µM
- TGI [1]: 3.47 µM
- GI50 [2]: 0.295 µM
- TGI [2]: > 100 µM
- GI50 [3]: 0.205 µM
- TGI [3]: 6.66 µM
- GI50 [4]: 0.0336 µM
- TGI [4]: > 34.1 µM
- GI50 [5]: 0.458 µM
- TGI [5]: 7.11 µM
- GI50 [6]: 0.396 µM
- TGI [6]: > 100 µM
- GI50 [7]: 0.0638 µM
- TGI [7]: > 84.6 µM
- GI50 [8]: 0.463 µM
- GI50 [9]: 0.437 µM
- TGI [9]: 51.1 µM
- GI50 [10]: 0.832 µM
- TGI [10]: 26.6 µM

Structure (SMILES): Cc1cc(NCc2cc(Nc3ccnc4cc(Cl)ccc34)ccc2F)nc(N2CCN(C)CC2)n1
- GI50 [1]: 1.35 µM
- TGI [1]: 3.52 µM
- GI50 [2]: 1.12 µM
- TGI [2]: 7.6 µM
- GI50 [3]: 1.09 µM
- TGI [3]: 2.55 µM
- GI50 [4]: 2.22 µM
- TGI [4]: 4.79 µM
- GI50 [5]: 2.09 µM
- TGI [5]: 4.35 µM
- GI50 [6]: 1.87 µM
- TGI [6]: 5.21 µM
- GI50 [7]: 1.67 µM
- TGI [7]: 4 µM
- GI50 [8]: 2.05 µM
- TGI [8]: 5.17 µM
- GI50 [9]: 2.03 µM
- TGI [9]: 3.93 µM
- GI50 [10]: 2.32 µM
- TGI [10]: 8.31 µM

Structure (SMILES): COc1cc(/C=N/NC(=O)c2cnn3c2NC(c2ccccc2)C3)ccc1Oc1ccccc1 (centres undefined)
- GI50 [1]: 2.06 µM
- TGI [1]: 8.58 µM
- GI50 [2]: 1.43 µM
- TGI [2]: > 100 µM
- GI50 [3]: 0.522 µM
- TGI [3]: 2.08 µM
- GI50 [4]: 0.366 µM
- TGI [4]: 2.62 µM
- GI50 [5]: 3.6 µM
- TGI [5]: 30 µM
- GI50 [6]: 1.65 µM
- TGI [6]: 5.22 µM
- GI50 [7]: 0.996 µM
- TGI [7]: 10.2 µM
- GI50 [8]: 2.34 µM
- TGI [8]: 11.9 µM
- GI50 [9]: 1.14 µM
- TGI [9]: 4.89 µM
- GI50 [10]: 1.78 µM
- TGI [10]: 4.22 µM

Structure (SMILES): CC(C)COCC(CN(Cc1ccccc1)c1ccccc1)N1CCCC1 (centres undefined)
- GI50 [1]: 1.66 µM
- TGI [1]: 6.88 µM
- GI50 [2]: 2.71 µM
- TGI [2]: 13.7 µM
- GI50 [3]: 2.02 µM
- TGI [3]: 6.5 µM
- GI50 [4]: 1.61 µM
- TGI [4]: 3.35 µM
- GI50 [5]: 2.25 µM
- TGI [5]: 6.16 µM
- GI50 [6]: 3.6 µM
- TGI [6]: 18.2 µM
- GI50 [7]: 3.25 µM
- TGI [7]: 13.7 µM
- GI50 [8]: 3.93 µM
- TGI [8]: 15.8 µM
- GI50 [9]: 2.73 µM
- TGI [9]: 8 µM
- GI50 [10]: 3.48 µM
- TGI [10]: 15.4 µM

Structure (SMILES): CCN1Cc2c(ccc(F)c2C#N)O[C@@H](C)CNC(=O)c2c(N)nn3ccc1nc23
- GI50 [1]: 0.479 µM
- TGI [1]: 3.65 µM
- GI50 [2]: 3.74 µM
- TGI [2]: > 100 µM
- GI50 [3]: 0.0758 µM
- TGI [3]: 10.3 µM
- GI50 [4]: 5.04 µM
- TGI [4]: 41.3 µM
- GI50 [5]: 5.57 µM
- TGI [5]: 20.7 µM
- GI50 [6]: 0.652 µM
- TGI [6]: 4.71 µM
- GI50 [7]: 0.399 µM
- TGI [7]: 1.98 µM
- GI50 [8]: 2.87 µM
- TGI [8]: 19.8 µM
- GI50 [9]: 1.72 µM
- TGI [9]: 5.22 µM
- GI50 [10]: 1.35 µM
- TGI [10]: 18.5 µM

Structure (SMILES): CN1C(=O)C(CC(=O)O)NC1=S (centres undefined)
- TGI [1]: > 100 µM
- TGI [2]: > 100 µM
- TGI [3]: > 100 µM
- TGI [4]: > 100 µM
- TGI [5]: > 100 µM
- TGI [6]: > 100 µM
- TGI [7]: > 100 µM
- TGI [8]: > 100 µM
- TGI [9]: > 100 µM
- TGI [10]: > 100 µM

Structure (SMILES): OC(CNCC1CCCO1)Cn1c2ccc(Cl)cc2c2cc(Cl)ccc21 (centres undefined)
- GI50 [1]: 2.15 µM
- TGI [1]: 6.24 µM
- GI50 [2]: 2.28 µM
- TGI [2]: 4.99 µM
- GI50 [3]: 1.78 µM
- TGI [3]: 3.57 µM
- GI50 [4]: 1.89 µM
- TGI [4]: 3.6 µM
- GI50 [5]: 1.71 µM
- TGI [5]: 3.15 µM
- GI50 [6]: 2.14 µM
- TGI [6]: 6.93 µM
- GI50 [7]: 1.54 µM
- TGI [7]: 3 µM
- GI50 [8]: 1.89 µM
- TGI [8]: 3.61 µM
- GI50 [9]: 2.29 µM
- TGI [9]: 4.28 µM
- GI50 [10]: 2.06 µM
- TGI [10]: 4.58 µM
